Some results are limits rather than exact numbers.

The target of the test is (recombinant) catalytic domain of human Bub1 (amino acids 704-1085) (Homo sapiens (Human), UniProt O43683). The test can be described thus: Bub1 kinase assay (TR-FRET). It is filed as biochemical. The following applies: ATP 10 μM final, peptide substrate 1 μM final, 60 min at 22° C., read-out: Biological Assay: Bub1 kinase assay median IC50. The method, boiled down: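 Compounds were serially diluted 1:3.4 from 2 mM DMSO stocks and incubated with the enzyme reaction for 60 min at 22° C. The reaction was stopped with EDTA, and biotinylated peptide phosphorylation was read by TR-FRET using Eu anti-mouse IgG, anti-phosphoserine antibody and streptavidin-XL665. IC50 was fitted by 4-parameter logistic to inhibition normalized to no-inhibitor and no-enzyme controls.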
Sequence of (recombinant) catalytic domain of human Bub1 (amino acids 704-1085) (O43683 704-1085): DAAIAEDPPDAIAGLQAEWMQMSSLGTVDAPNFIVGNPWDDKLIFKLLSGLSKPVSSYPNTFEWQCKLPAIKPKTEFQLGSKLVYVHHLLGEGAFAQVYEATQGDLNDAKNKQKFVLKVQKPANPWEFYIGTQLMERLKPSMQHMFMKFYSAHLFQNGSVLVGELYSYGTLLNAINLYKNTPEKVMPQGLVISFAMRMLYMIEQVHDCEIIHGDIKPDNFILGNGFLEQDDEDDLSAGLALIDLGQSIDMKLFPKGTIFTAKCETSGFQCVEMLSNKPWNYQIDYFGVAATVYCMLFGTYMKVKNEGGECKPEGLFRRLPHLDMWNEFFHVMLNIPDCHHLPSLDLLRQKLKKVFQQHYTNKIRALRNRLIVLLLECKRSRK
For orientation: TR-FRET usually uses a lanthanide donor and a delayed reading to cut background.
What is called IC50 is the concentration that inhibits the measured activity by half. Take `Nc1cc(-c2[nH]c3c(c2Nc2ccccc2)C(=O)CC2(CC2)C3)ccn1` [Example 206, 2′-(2-aminopyridin-4-yl)-3′-(phenylamino)-1′,7′-dihydrospiro[cyclopropane-1,6′-indol]-4′(5′H)-one]: the IC50 is 9.73 nM.

With `O=C1CC2(CC2)Cc2[nH]c(-c3ccnc(F)c3)c(Nc3ccccc3)c21` [Example 207, 2′-(2-fluoropyridin-4-yl)-3′-(phenylamino)-1′,7′-dihydrospiro[cyclopropane-1,6′-indol]-4′(5′H)-one], the IC50 worked out at 7.32 nM. For `O=C1CC2(CC2)Cc2[nH]c(-c3ccncc3F)c(Nc3ccccc3)c21` [Example 208, 2′-(3-fluoropyridin-4-yl)-3′-(phenylamino)-1′,7′-dihydrospiro[cyclopropane-1,6′-indol]-4′(5′H)-one], the IC50 was 6.39 nM. In the case of `Cc1cc(-c2[nH]c3c(c2Nc2ccccc2)C(=O)CC(C)(C)C3)cc(C)n1` [Example 209, 2-(2,6-dimethylpyridin-4-yl)-6,6-dimethyl-3-(phenylamino)-1,5,6,7-tetrahydro-4H-indol-4-one] it was 3120 nM; in that of `CC1(C)CC(=O)c2c([nH]c(-c3ccnc4c3OCCO4)c2Nc2ccccc2)C1` [Example 210, 2-(2,3-dihydro[1,4]dioxino[2,3-b]pyridin-8-yl)-6,6-dimethyl-3-(phenylamino)-1,5,6,7-tetrahydro-4H-indol-4-one], 130 nM. Turning to `Nc1cc(-c2[nH]c3c(c2Nc2ccc(F)cc2)C(=O)CCC3)ccn1` [Example 211, 2-(2-aminopyridin-4-yl)-3-[(4-fluorophenyl)amino]-1,5,6,7-tetrahydro-4H-indol-4-one], the IC50 turned out to be 114 nM.

For the compound `Nc1cc(-c2[nH]c3c(c2Nc2ccc(F)c(F)c2)C(=O)CCC3)ccn1` [Example 212, 2-(2-aminopyridin-4-yl)-3-[(3,4-difluorophenyl)amino]-1,5,6,7-tetrahydro-4H-indol-4-one], the IC50 came to 220 nM.

Take `CC1(C)CC(=O)c2c([nH]c(-c3ccnc(F)c3)c2Nc2ccccc2)C1` [Example 213, 2-(2-fluoropyridin-4-yl)-6,6-dimethyl-3-(phenylamino)-1,5,6,7-tetrahydro-4H-indol-4-one]: the IC50 was 12.2 nM. Regarding `CC1(C)CC(=O)c2c([nH]c(-c3ccnc(Cl)c3Cl)c2Nc2ccccc2)C1` [Example 214, 2-(2,3-dichloropyridin-4-yl)-6,6-dimethyl-3-(phenylamino)-1,5,6,7-tetrahydro-4H-indol-4-one], the IC50 worked out at 67.6 nM. Take `CC1(C)CC(=O)c2c([nH]c(-c3cc(Cl)ncc3Cl)c2Nc2ccccc2)C1` [Example 215, 2-(2,5-dichloropyridin-4-yl)-6,6-dimethyl-3-(phenylamino)-1,5,6,7-tetrahydro-4H-indol-4-one]: the IC50 is 9680 nM.

Take `CC1(C)CC(=O)c2c([nH]c(-c3cc(Cl)nc(Cl)c3)c2Nc2ccccc2)C1` [Example 216, 2-(2,6-dichloropyridin-4-yl)-6,6-dimethyl-3-(phenylamino)-1,5,6,7-tetrahydro-4H-indol-4-one]: the IC50 was over 20000 nM. Turning to `O=C1CCCc2[nH]c(-c3cc(Cl)nc(Cl)c3)c(Nc3ccccc3)c21` [Example 217, 2-(2,6-dichloropyridin-4-yl)-3-(phenylamino)-1,5,6,7-tetrahydro-4H-indol-4-one], the IC50 was over 20000 nM. In the case of `O=C1CCCc2[nH]c(-c3cc(F)ncc3F)c(Nc3ccccc3)c21` [Example 218, 2-(2,5-difluoropyridin-4-yl)-3-(phenylamino)-1,5,6,7-tetrahydro-4H-indol-4-one], the IC50 came to 906 nM. Turning to `CC1(C)CC(=O)c2c([nH]c(-c3ccnc(Cl)c3F)c2Nc2ccccc2)C1` [Example 219, 2-(2-chloro-3-fluoropyridin-4-yl)-6,6-dimethyl-3-(phenylamino)-1,5,6,7-tetrahydro-4H-indol-4-one], the concentration for half-maximal inhibition (IC50) amounted to 12.2 nM. As for `CC1(C)CC(=O)c2c([nH]c(-c3cc(Cl)ncc3F)c2Nc2ccccc2)C1` [Example 220, 2-(2-chloro-5-fluoropyridin-4-yl)-6,6-dimethyl-3-(phenylamino)-1,5,6,7-tetrahydro-4H-indol-4-one], the IC50 turned out to be 1400 nM.

The values above are taken from US10428044B2, “3-amino-1,5,6,7-tetrahydro-4H-indol-4-ones” (Bayer Pharma Aktiengesellschaft, priority 2014, dated 2019).
